Consider four compounds from ChEMBL document CHEMBL1148071, “New cytotoxic peroxylactones from the marine sponge, Plakinastrella onkodes” (J Nat Prod, 1994).

Structures are written as SMILES. ≈ marks a conversion by molar mass, not a printed value.

Test [1] concerns the target T1, Protein kinase C alpha type (Homo sapiens, UniProt P17252). Briefly: Inhibition of PKCalpha.
Test [2] has as its target T2, Protein kinase C beta type (Homo sapiens, UniProt P05771). In words: Inhibition of PKCbeta2.
Target sequence in this assay (P05771 whole entry): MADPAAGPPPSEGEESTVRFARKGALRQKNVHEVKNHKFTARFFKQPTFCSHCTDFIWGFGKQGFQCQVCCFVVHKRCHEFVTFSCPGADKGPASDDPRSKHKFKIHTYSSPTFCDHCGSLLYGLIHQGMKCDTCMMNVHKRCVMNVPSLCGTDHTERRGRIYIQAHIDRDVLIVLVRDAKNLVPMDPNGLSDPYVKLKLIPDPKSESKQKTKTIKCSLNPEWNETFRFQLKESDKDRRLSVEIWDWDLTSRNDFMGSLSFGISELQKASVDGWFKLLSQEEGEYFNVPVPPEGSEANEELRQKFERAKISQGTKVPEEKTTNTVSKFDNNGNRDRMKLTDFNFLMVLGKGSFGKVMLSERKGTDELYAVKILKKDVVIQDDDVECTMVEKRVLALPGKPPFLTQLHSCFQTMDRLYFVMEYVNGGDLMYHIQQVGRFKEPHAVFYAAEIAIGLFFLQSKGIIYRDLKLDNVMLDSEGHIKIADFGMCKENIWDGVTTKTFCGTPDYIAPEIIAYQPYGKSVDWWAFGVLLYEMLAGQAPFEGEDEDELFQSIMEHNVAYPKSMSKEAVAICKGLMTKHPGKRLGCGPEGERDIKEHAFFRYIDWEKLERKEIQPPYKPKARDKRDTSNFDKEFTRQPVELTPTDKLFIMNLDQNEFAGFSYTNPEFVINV
For test [3], the target named is T3, Protein kinase C delta type (Homo sapiens, UniProt Q05655). Briefly: Inhibition of PKCdelta.
Target sequence in this assay (Q05655 whole entry): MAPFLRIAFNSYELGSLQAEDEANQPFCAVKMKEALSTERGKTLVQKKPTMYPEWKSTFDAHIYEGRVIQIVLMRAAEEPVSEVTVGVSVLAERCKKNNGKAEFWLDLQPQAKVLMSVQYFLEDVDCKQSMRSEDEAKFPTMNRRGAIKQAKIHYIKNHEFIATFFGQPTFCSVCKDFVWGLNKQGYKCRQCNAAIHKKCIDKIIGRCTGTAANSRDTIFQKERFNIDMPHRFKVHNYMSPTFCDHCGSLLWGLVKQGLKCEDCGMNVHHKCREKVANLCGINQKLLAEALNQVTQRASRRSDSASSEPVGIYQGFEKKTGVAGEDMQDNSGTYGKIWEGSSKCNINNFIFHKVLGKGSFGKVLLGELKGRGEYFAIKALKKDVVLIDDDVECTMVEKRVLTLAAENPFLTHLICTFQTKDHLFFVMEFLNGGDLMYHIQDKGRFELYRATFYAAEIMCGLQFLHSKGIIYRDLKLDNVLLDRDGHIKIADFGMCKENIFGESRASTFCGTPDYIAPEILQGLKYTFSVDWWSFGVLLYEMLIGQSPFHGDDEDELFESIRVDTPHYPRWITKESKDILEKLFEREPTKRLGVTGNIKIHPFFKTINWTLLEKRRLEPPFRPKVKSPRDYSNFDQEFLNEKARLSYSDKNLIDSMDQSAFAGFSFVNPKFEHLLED
In test [4] the target is T2, Protein kinase C beta type. Briefly: Inhibition of PKCbeta1.
Target sequence in this assay (P05771 whole entry): as the sequence (P05771 whole entry) above
For test [5], the system named is P388. In words: Cytotoxicity against mouse P388 cells. The class given is functional, cell-based.
Test [6] is described as follows: Inhibition of cell adhesion in mouse EL-4.IL-2 cells. The class given is functional, cell-based.
Test [7] has as its system A549. Briefly: Cytotoxicity against human A549 cells. The class given is functional, cell-based.
Test [8] addresses T1, Protein kinase C alpha type. In words: Agonist activity at PKCalpha at 50 ug/ml. The class given is functional.
The target in test [9] is Protein kinase C gamma type (Homo sapiens) (UniProt P05129). In words: Agonist activity at PKCgamma at 50 ug/ml. The class given is functional.
Test [10] deals with T3, Protein kinase C delta type. In words: Agonist activity at PKCdelta at 50 ug/ml. The class given is functional.
Target sequence in this assay (Q05655 whole entry, looked up): as the sequence (Q05655 whole entry) above
For test [11], the target named is T2, Protein kinase C beta type. Briefly: Agonist activity at PKCbeta1 at 50 ug/ml. The class given is functional.
Target sequence in this assay (P05771 2-671 limits assumed): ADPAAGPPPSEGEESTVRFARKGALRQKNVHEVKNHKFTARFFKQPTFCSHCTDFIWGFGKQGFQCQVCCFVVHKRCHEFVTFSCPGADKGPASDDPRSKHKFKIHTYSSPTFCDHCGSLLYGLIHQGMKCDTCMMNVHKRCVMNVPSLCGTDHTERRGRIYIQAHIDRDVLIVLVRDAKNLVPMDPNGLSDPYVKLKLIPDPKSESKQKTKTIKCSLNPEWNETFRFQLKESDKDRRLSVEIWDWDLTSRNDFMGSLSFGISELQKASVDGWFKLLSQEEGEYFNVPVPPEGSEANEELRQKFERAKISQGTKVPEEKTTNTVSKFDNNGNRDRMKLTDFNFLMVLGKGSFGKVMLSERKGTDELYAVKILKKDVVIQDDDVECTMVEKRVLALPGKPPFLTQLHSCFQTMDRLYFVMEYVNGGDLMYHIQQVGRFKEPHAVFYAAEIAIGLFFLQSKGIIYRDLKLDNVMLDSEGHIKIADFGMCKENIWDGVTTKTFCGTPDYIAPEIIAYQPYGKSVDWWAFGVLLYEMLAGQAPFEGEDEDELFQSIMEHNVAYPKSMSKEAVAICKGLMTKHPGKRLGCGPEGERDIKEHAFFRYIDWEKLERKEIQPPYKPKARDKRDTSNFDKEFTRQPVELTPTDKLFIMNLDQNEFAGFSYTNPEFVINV
The target in test [12] is T2, Protein kinase C beta type. Briefly: Agonist activity at PKCbeta2 at 50 ug/ml. The class given is functional.
Target sequence in this assay (P05771 2-671 limits assumed): as above
In test [13] the target is T4, Protein kinase C epsilon type (Homo sapiens) (UniProt Q02156).
T4 sequence (whole entry): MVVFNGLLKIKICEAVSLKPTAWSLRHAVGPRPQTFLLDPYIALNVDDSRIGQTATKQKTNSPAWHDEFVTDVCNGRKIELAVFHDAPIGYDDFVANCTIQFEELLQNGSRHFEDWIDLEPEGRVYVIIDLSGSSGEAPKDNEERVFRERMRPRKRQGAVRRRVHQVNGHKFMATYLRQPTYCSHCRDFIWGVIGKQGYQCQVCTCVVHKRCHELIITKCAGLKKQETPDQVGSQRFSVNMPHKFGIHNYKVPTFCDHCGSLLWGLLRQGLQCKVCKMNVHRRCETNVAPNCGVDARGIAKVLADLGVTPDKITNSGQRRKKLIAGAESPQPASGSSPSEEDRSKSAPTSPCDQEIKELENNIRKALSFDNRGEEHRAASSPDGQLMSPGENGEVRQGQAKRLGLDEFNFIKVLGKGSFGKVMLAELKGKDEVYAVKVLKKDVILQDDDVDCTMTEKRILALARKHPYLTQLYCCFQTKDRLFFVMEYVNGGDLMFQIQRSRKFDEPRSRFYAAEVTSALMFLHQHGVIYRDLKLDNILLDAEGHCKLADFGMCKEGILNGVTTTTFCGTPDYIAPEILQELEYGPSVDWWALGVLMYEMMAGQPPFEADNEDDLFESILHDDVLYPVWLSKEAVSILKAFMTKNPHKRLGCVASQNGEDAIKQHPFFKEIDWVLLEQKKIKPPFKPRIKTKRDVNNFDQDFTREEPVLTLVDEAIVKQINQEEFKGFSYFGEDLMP
In words: Agonist activity at PKCepsilon at 50 ug/ml. The class given is functional.

Test [14] can be described thus: Induction of cell adhesion in mouse EL-4.IL-2 cells. The class given is functional, cell-based.

On to `CCCCCCCCCCCCCCCC[C@@]1(OC)C=C[C@@H](CC(=O)OC)OO1` [CHONDRILLIN], for which the IC50 (in general, the point on the concentration scale where inhibition reaches its midpoint) in test [1] was 87.2 µM; in test [2] it was 119 µM; in test [3], 55.7 µM; in test [4] it was 119 µM.

`COC(=O)C[C@@]1(C)C[C@](C)(CC(C)CCCCCCc2ccccc2)OO1` (some centres undefined) [EPIPLAKINIC ACID E METHYL ESTER]: the IC50 came out at 2.5 µg/mL (≈ 6.64 µM) in test [5], 4.6 µg/mL (≈ 12.2 µM) in [6] and 2 µg/mL (≈ 5.31 µM) in test [7].

On to `CC(CCCCCCCCc1ccccc1)C[C@]1(C)C[C@]2(C)OC(=O)C[C@@H]2OO1` (some centres undefined) [PLAKORTOLIDE B], for which the Activity in test [8] is -19%; in test [9], -9%; in [10], -9%; in [11] it was -13%; in test [12], -27%; in test [13], -38%. Also, the 50% inhibitory concentration (IC50) in test [5] was determined as 0.4 µg/mL (≈ 0.994 µM); in [14] it was 4.4 µg/mL (≈ 10.9 µM); in test [7] it was 1.3 µg/mL (≈ 3.23 µM).

With `CC(CCCCCCc1ccccc1)CC(C)C[C@]1(C)C[C@]2(C)OC(=O)C[C@@H]2OO1` (some centres undefined) [PLAKORTOLIDE D], the IC50 in [5] turned out to be 0.8 µg/mL (≈ 1.92 µM); in test [6], 15.8 µg/mL (≈ 37.9 µM); in [7], 3.8 µg/mL (≈ 9.12 µM).
